The record followed here is patent US20050004126A1 (priority 2001, published 2005).

Molecules are shown by their SMILES.

The first experiment addresses MMP-13CD (catalytic domain of collagenase 3) (Homo sapiens, UniProt P45452). Briefly: Thiopeptolide hydrolysis assay, MMP-13.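 Also: inhibition of enzymatic thiopeptolide substrate cleavage (100 µM) in pH 6.0 MES buffer with CaCl2 and DTNB, comparing hydrolysis with versus without inhibitor.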 The following applies: IC50 μM, Table V; MMP-13.
Turning to `COc1ccc(CNC(=O)c2ccc3c(c2)c(=O)n(Cc2ccc(C(=O)N(C)C)cc2)c2nncn32)cc1` [4-(4-Dimethylcarbamoyl-benzyl)-5-oxo-4,5-dihydro-[1,2,4]triazolo[4,3-a]quinazoline-7-carboxylic acid 4-methoxy-benzylamide], the IC50 is 0.0087 µM.

Regarding `O=C(NCc1ccncc1)c1ccc2c(c1)c(=O)n(Cc1ccccc1)c1nncn21` [4-Benzyl-5-oxo-4,5-dihydro-[1,2,4]triazolo[4,3-a]quinazoline-7-carboxylic acid (pyridin-4-ylmethyl)-amide], the midpoint of inhibition, the IC50, lay at 0.04 µM.

As to `O=C(NCc1ccc2c(c1)OCO2)c1ccc2c(c1)c(=O)n(Cc1ccccc1)c1nccn21` [4-Benzyl-5-oxo-4,5-dihydro-imidazo[1,2-a]quinazoline-7-carboxylic acid (benzo[1,3]dioxol-5-ylmethyl)-amide], the IC50 turned out to be 0.165 µM.

With `O=C(NCc1ccncc1)c1ccc2c(c1)c(=O)n(Cc1ccccc1)c1nccn21` [4-Benzyl-5-oxo-4,5-dihydro-imidazo[1,2-a]quinazoline-7-carboxylic acid (pyridin-4-ylmethyl)-amide], half-maximal inhibition (IC50) was put at 2.1 µM.

In turn, `COc1ccc(CNC(=O)c2ccc3c(c2)c(=O)n(CCOc2ccc(Cl)cc2)c2nncn32)cc1` [4-[2-(4-Chloro-phenoxy)-ethyl]-5-oxo-4,5-dihydro-[1,2,4]triazolo[4,3-a]quinazoline-7-carboxylic acid 4-methoxy-benzylamide] displayed an IC50 of 0.0865 µM.

As to `O=C(O)c1ccc(Cn2c(=O)c3cc(C(=O)NCc4ccc(F)cc4)ccc3n3cnnc23)cc1` [4-{7-[(4-Fluoro)-benzylcarbamoyl]-5-oxo-5H-[1,2,4]triazolo[4,3-a]quinazol-4-ylmethyl}benzoic acid], the midpoint of inhibition, the IC50, lay at 0.0011 µM.

`O=C(O)c1ccc(Cn2c(=O)c3cc(C(=O)NCc4ccncc4)ccc3n3cnnc23)cc1` [4-{7-[(Pyridin-4-ylmethyl)-carbamoyl]-5-oxo-5H-[1,2,4]triazolo[4,3-a]quinazol-4-ylmethyl} benzoic acid] registered an IC50 of 0.0042 µM.

As for `O=C(O)Cc1ccc(Cn2c(=O)c3cc(C(=O)NCc4ccc5c(c4)OCO5)ccc3n3cnnc23)cc1` [(4-{7-[(1,3-Benzodioxol-5-ylmethyl)-carbamoyl]-5-oxo-5H-[1,2,4]triazolo[4,3-a]quinazolin-4-ylmethyl}-phenyl)-acetic acid], the IC50 is 0.0011 µM.

The molecule `COc1ccc(CNC(=O)c2ccc3c(c2)c(=O)n(Cc2ccc(CC(=O)O)cc2)c2nncn32)cc1` [(4-{7-[(4-Methoxy)-benzylcarbamoyl]-5-oxo-5H-[1,2,4]triazolo[4,3-a]quinazolin-4-ylmethyl}-phenyl)-acetic acid] returned an IC50 of 0.0013 µM.

`O=C(O)Cc1ccc(Cn2c(=O)c3cc(C(=O)NCc4ccncc4)ccc3n3cnnc23)cc1` [(4-{7-[(Pyridin-4-yl)-methylcarbamoyl]-5-oxo-5H-[1,2,4]triazolo[4,3-a]quinazolin-4-ylmethyl}-phenyl)-acetic acid] had an IC50 of 0.0062 µM.

Still in this experiment, the particulars now being: MMP13 IC50 μM, Table IVb.
For the molecule `COc1ccc(CNC(=O)c2cnc3c(c2)c(=O)n(Cc2ccc(C#N)cc2)c(=O)n3C)cc1` [3-(4-Cyano-benzyl)-1-methyl-2,4-dioxo-1,2,3,4-tetrahydro-pyrido[2,3-d] pyrimidine-6-carboxylic acid 4-methoxy-benzylamide], the IC50 was 0.016 µM.

Take `COc1ccc(CNC(=O)c2cnc3c(c2)c(=O)n(Cc2ccc(F)cc2)c(=O)n3C)cc1` [3-(4-Fluoro-benzyl)-1-methyl-2,4-dioxo-1,2,3,4-tetrahydro-pyrido[2,3-d]pyrimidine-6-carboxylic acid 4-methoxy-benzylamide]: inhibition was half-maximal at 0.032 µM (IC50).

The molecule `Cn1c(=O)n(Cc2ccccc2)c(=O)c2cc(C(=O)NCc3ccc4c(c3)OCO4)cnc21` [3-Benzyl-1-methyl-2,4-dioxo-1,2,3,4-tetrahydro-pyrido[2,3-d] pyrimidine-6-carboxylic acid (1,3-benzodioxol-5-ylmethyl)-amide] displayed an IC50 of 0.007 µM.

Consider `Cn1c(=O)n(Cc2ccccc2)c(=O)c2cc(C(=O)NCc3ccc4c(c3)OCO4)ncc21` [3-Benzyl-1-methyl-2,4-dioxo-1,2,3,4-tetrahydro-pyrido[3,4-d]pyrimidine-6-carboxylic acid (1,3-benzodioxol-5-ylmethyl)-amide], for which the IC50 worked out at 0.00078 µM.

In the case of `Cn1c(=O)n(Cc2ccccc2)c(=O)c2cc(C(=O)CCc3ccccc3)ccc21` [3-Benzyl-1-methyl-6-(3-phenyl-propionyl)-1H-quinazoline-2,4-dione], the IC50 was found to be 2.9 µM.

`Cn1c(=O)n(Cc2ccccc2)c(=O)c2cc(SCc3ccccc3)ccc21` [3-Benzyl-6-benzylsulfanyl-1-methyl-1H-quinazoline-2,4-dione] gave an IC50 of 4.1 µM.

Molecule `COc1ccc(CNC(=O)c2cnc3c(c2)c(=O)n(Cc2ccc(C(=O)O)cc2)c(=O)n3C)cc1` [4-[6-(4-Methoxy-benzylcarbamoyl)-1-methyl-2,4-dioxo-1,4-dihydro-2H-pyrido[2,3-d]pyrimidin-3-ylmethyl]-benzoic acid] had an IC50 of 0.0016 µM.

The same experiment, now with this note: MMP13 IC50 (nM), Table II.
`CC(=O)Nc1ccc(C(=O)NCc2ccc3c(c2)OCO3)cc1C(=O)NCc1ccc2c(c1)OCO2` showed an IC50 of 5.2 µM.

Molecule `Nc1ccc(C(=O)NCc2ccc3c(c2)OCO3)cc1C(=O)NCc1ccc2c(c1)OCO2` displayed an IC50 of 4.1 µM.

In turn, `COc1ccc(C(=O)NCc2ccccc2)cc1C(=O)NCCOc1ccccc1` returned an IC50 of 8.7 µM.

Molecule `O=C(NCc1ccncc1)c1cccc(C(=O)NCc2ccc(Cl)c(Cl)c2)c1` displayed an IC50 of 2.5 µM.

`CCOCCNC(=O)c1ccc(OC)c(C(=O)NCc2ccc3c(c2)OCO3)c1` showed an IC50 of 5.7 µM.

On to `O=C(OCc1ccccc1)c1cc(C(=O)OCc2ccccc2)cc([N+](=O)[O-])c1` [5-Nitro-isophthalic acid dibenzyl ester], for which half-maximal inhibition (IC50) required 1.5 µM.

For `O=C(OCc1ccc2c(c1)OCO2)c1cccc(C(=O)OCc2ccc3c(c2)OCO3)c1` [Isophthalic acid bis-(1,3-benzodioxol-5-ylmethyl) ester], the IC50 amounted to 0.66 µM.

The same experiment, now with this note: MMP13 IC50 (μM), Table 1b.
Molecule `COC(=O)c1nc(Cn2c(=O)c(C)c3sc(C(=O)NCc4ccc(F)cc4)cn3c2=O)ncc1OC` gave an IC50 of 1.85 µM.

Turning to `Cc1c(=O)n(CCS(=O)(=O)c2ccc(F)cc2)c(=O)n2cc(C(=O)NCc3ccc(F)cc3)sc12`, half-maximal inhibition (IC50) required 0.645 µM.

Consider `Cc1c(=O)n(CCC(=O)c2ccc(F)cc2)c(=O)n2cc(C(=O)NCc3ccc(F)cc3)sc12`, for which it took 0.51 µM to reach half-maximal inhibition (IC50).

Molecule `C/C=C/Cn1c(=O)c(C)c2sc(C(=O)NCc3ccc(F)cc3)cn2c1=O` displayed an IC50 of 0.53 µM.

Regarding `CCC(C)n1c(=O)c(C)c2sc(C(=O)NCc3ccc(F)cc3)cn2c1=O` (stereo not drawn), the IC50 amounted to 0.4 µM.

`Cc1c(=O)n(CCOc2ccccc2)c(=O)n2cc(C(=O)NCc3ccc(F)cc3)sc12`: the IC50 was found to be 0.058 µM.

With `Cc1c(=O)n(CCS(=O)(=O)Cc2ccccc2)c(=O)n2cc(C(=O)NCc3ccc(F)cc3)sc12`, the IC50 was determined as 0.56 µM.

`CC/C=C/Cn1c(=O)c(C)c2sc(C(=O)NCc3ccc(F)cc3)cn2c1=O` gave an IC50 of 0.16 µM.

In the case of `CCC#CCn1c(=O)c(C)c2sc(C(=O)NCc3ccc(F)cc3)cn2c1=O`, the IC50 is 0.092 µM.

Turning to `CC(C)=CCn1c(=O)c(C)c2sc(C(=O)NCc3ccc(F)cc3)cn2c1=O`, half-maximal inhibition (IC50) required 0.82 µM.

The same experiment, now with this note: read-out: MMP 13 IC50 μM; Table III.
Take `COc1cccc(CNC(=O)c2cc3c(=O)n(Cc4ccc(OC(C)(C)C(=O)O)cc4)c(=O)n(C)c3s2)c1`: the IC50 came out at 0.0185 µM.

Regarding `COc1ccc(CNC(=O)c2cc3c(=O)n(CCS(=O)(=O)c4ccccc4)c(=O)n(C)c3s2)cc1`, the IC50 was determined as 4 µM.
